The target of experiment [1] is Casein kinase 1 delta (CSKN1D) (Homo sapiens, UniProt P48730). Nature of the experiment: Casein kinase assay, CK1 delta. The settings on record: recombinant CSKN1D 5 nM, ATP 10 μM. It counts as biochemical.
Experiment [2] has as its target Casein kinase 1 epsilon (CSKN1E) (Homo sapiens, UniProt P49674). Nature of the experiment: Casein kinase assay, CK1 epsilon. It counts as biochemical. The settings on record: recombinant CSKN1E 30 nM, ATP 10 μM.
Experiment [3] has as its system Hedgehog signaling pathway. Nature of the experiment: Hedgehog reporter assay (Gli Reporter - NIH3T3 Cell Line). The experiment is classed as cell-based. The settings on record: Mus musculus; Gli reporter NIH3T3 cells, murine SHH stimulation, 24 h; read-out: HH Assay. The method, then: In order to investigate the potency of test compounds to inhibit the Hedgehog signaling pathway, a Gli-Reporter assay was performed.
The “Gli Reporter—NIH3T3 Cell Line” contains the firefly luciferase gene under the control of Gli responsive elements stably integrated into murine NIH3T3 cells (cells purchased from Amsbio). The luciferase expression correlates with activation of the hedgehog signaling pathway. This cell line is validated for its response to stimulation with murine Sonic Hedgehog and to treatment with inhibitors of the hedgehog signaling pathway. A multiplexed viability assay was used to discriminate inhibition on the pathway activity from cell toxicity.
Growth Medium: DMEM, 10% Calf Serum, 1% Penicillin/Streptomycin 500 μg/ml Geneticin (G418 Stock 50 mg/ml).
25.000 cells per well were seeded into a white 96 well plate in 100 μl growth medium and incubated over night at 37° C. and 5% CO2. After removing the supernatant the test compounds and controls (known GLI inhibitor, e.g. GANT-61) were added in different concentrations in a final volume of 45 μl and incubated for 1 h at 37° C. and 5% CO2. For the stimulation of the Hedgehog pathway 5 μl of 10 μg/ml concentrated murine sonic hedgehog (SHH) was added to the cells. A final concentration of 1 μg/ml mSHH and 0.1% DMSO was reached per well. After incubation for 24 h at 37° C. the cells were investigated for viability and reporter activity.
Viability: For the determination of the viability of the treated cells the CellTiter-Fluor Kit from Promega was used. Essentially, only proteases of viable cells are able to cleave the cell-permeant substrate Gly-Phe-AFCoumarin (GF-AFC). By this cleavage the fluorescent AFC is set free and can be detected in a fluorescence reader. For this assay 10 μl of GF-AFC substrate (CellTiter-Fluor, Promega #G6082) was diluted in 2 ml assay buffer from the CellTiter-Fluor Kit and 10 μl of this dilution was added per well to the cells and incubated for 30 min at 37° C. The fluorescence was measured with excitation at 380-400 nm and emission at 505 nm.
Reporter activity: The firefly luciferase reporter activity was detected with the ONE-Glo™ Luciferase Assay System from Promega. For this assay 50 μl ONE-Glo luciferase reagent (Promega #E6120, contains cell lysis buffer and luciferin) was added to each well and incubated at room temperature for 5 min. Luminescence was detected in a plate reader and served as a degree for reporter activity.
A general note: In a reporter assay the amount or activity of a reporter protein is the signal.

Chain of Casein kinase 1 epsilon (CSKN1E) (P49674 whole entry): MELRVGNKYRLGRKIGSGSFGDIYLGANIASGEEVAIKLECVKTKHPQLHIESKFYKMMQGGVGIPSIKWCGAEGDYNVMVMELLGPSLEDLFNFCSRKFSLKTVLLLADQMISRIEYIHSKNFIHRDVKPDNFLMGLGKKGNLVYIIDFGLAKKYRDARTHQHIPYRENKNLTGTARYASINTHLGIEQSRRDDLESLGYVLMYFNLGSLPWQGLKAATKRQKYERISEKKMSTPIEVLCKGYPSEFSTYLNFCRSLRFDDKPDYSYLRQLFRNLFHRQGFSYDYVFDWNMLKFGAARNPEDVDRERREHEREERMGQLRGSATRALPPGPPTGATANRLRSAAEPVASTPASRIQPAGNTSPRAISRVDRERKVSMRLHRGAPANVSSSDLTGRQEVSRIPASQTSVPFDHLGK
Chain of Casein kinase 1 delta (CSKN1D) (P48730 whole entry): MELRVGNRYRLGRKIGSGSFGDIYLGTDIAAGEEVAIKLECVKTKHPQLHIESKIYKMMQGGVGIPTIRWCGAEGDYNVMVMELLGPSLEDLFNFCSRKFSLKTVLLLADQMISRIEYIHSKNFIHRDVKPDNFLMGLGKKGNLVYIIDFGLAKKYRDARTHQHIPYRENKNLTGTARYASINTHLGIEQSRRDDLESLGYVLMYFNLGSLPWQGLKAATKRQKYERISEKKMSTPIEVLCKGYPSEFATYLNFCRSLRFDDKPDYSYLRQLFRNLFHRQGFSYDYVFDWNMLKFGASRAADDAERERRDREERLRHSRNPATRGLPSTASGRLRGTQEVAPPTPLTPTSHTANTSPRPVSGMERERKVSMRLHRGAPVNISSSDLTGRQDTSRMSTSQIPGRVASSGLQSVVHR

As for `O=C(Nc1nc2cc3c(cc2[nH]1)OC(F)(F)O3)c1csc(-c2ccc3c(c2)CCO3)n1` [Compound 3, N-(2,2-difluoro-5H-[1,3]dioxolo[4′,5′:4,5]benzo[1,2-d]imidazol-6-yl)-2-(2,3-dihydrobenzofuran-5-yl)thiazole-4-carboxamide], the IC50 in experiment [1] is < 200 nM; in experiment [2], 200 to 1000 nM; in experiment [3] it was ≤ 500 nM.

For the compound `COc1cccc(CC(=O)Nc2nc3cc4c(cc3[nH]2)OC(F)(F)O4)c1` [Compound 3B, N-(2,2-difluoro-5H-[1,3]dioxolo[4′,5′:4,5]benzo[1,2-d]imidazol-6-yl)-2-(3-methoxyphenyl)acetamide], the IC50 is < 200 nM in experiment [1], < 200 nM in experiment [2] and 500 to 1000 nM in experiment [3].

In the case of `O=C(Nc1nc2cc3c(cc2[nH]1)OC(F)(F)O3)c1cccc(-c2cc[nH]n2)c1` [Compound 5B, N-(2,2-difluoro-5H-[1,3]dioxolo[4′,5′:4,5]benzo[1,2-d]imidazol-6-yl)-3-(1H-pyrazol-3-yl)benzamide], the IC50 was < 200 nM in experiment [1] and 1000 to 15000 nM in experiment [3].

On to `O=C(Nc1nc2cc3c(cc2[nH]1)OC(F)(F)O3)c1csc(-c2ccco2)n1` [Compound 6B, N-(2,2-difluoro-5H-[1,3]dioxolo[4′,5′:4,5]benzo[1,2-d]imidazol-6-yl)-2-(furan-2-yl)thiazole-4-carboxamide], for which the IC50 in experiment [1] is < 200 nM; in experiment [2], < 200 nM; in experiment [3], 500 to 1000 nM.

For the compound `Nc1nccnc1C(=O)Nc1nc2cc3c(cc2[nH]1)OC(F)(F)O3` [Compound 7, 3-amino-N-(2,2-difluoro-5H-[1,3]dioxolo[4′,5′:4,5]benzo[1,2-d]imidazol-6-yl)pyrazine-2-carboxamide], the IC50 in experiment [1] is > 1000 nM; in experiment [2], > 1000 nM; in experiment [3], 1000 to 15000 nM.

As for `CN(C)c1cncc(C(=O)Nc2nc3cc4c(cc3[nH]2)OC(F)(F)O4)c1` [Compound 7B, N-(2,2-difluoro-5H-[1,3]dioxolo[4′,5′:4,5]benzo[1,2-d]imidazol-6-yl)-5-(dimethylamino)nicotinamide], the IC50 was < 200 nM in experiment [1] and 1000 to 15000 nM in experiment [3].

`O=C(Nc1nc2cc3c(cc2[nH]1)OC(F)(F)O3)c1csc(-c2cccs2)n1` [Compound 11B, N-(2,2-difluoro-5H-[1,3]dioxolo[4′,5′:4,5]benzo[1,2-d]imidazol-6-yl)-2-(thiophen-2-yl)thiazole-4-carboxamide]: the figures for the IC50 in experiment [1] and in experiment [3] were < 200 nM and 1000 to 15000 nM, respectively.

Take `O=C(Nc1nc2cc3c(cc2[nH]1)OC(F)(F)O3)c1csc(-c2ccoc2)n1` [Compound 16B, N-(2,2-difluoro-5H-[1,3]dioxolo[4′,5′:4,5]benzo[1,2-d]imidazol-6-yl)-2-(furan-3-yl)thiazole-4-carboxamide]: the values for the IC50 in experiment [1] and in experiment [3] were < 200 nM and 1000 to 15000 nM, respectively.

`O=C(Nc1nc2cc3c(cc2[nH]1)OC(F)(F)O3)c1cnccn1` [Compound 27, N-(2,2-difluoro-5H-[1,3]dioxolo[4′,5′:4,5]benzo[1,2-d]imidazol-6-yl)pyrazine-2-carboxamide]: the values for the IC50 in experiment [1], in experiment [2] and in experiment [3] were > 1000 nM, > 1000 nM and 1000 to 15000 nM, respectively.

For the compound `CN(C)c1cccc(C(=O)Nc2nc3cc4c(cc3[nH]2)OC(F)(F)O4)c1` [Compound 102, N-(2,2-difluoro-5H-[1,3]dioxolo[4′,5′:4,5]benzo[1,2-d]imidazol-6-yl)-3-(dimethylamino)benzamide], the IC50 in experiment [1] is < 200 nM; in experiment [3], 500 to 1000 nM.

As for `O=C(Nc1nc2cc3c(cc2[nH]1)OC(F)(F)O3)c1cccc(N2CCCC2)c1` [Compound 122, N-(2,2-difluoro-5H-[1,3]dioxolo[4′,5′:4,5]benzo[1,2-d]imidazol-6-yl)-3-(pyrrolidin-1-yl)benzamide], the IC50 in experiment [1] was < 200 nM; in experiment [3], ≤ 500 nM.

As to `CN(C)c1cc(C(=O)Nc2nc3cc4c(cc3[nH]2)OC(F)(F)O4)ccn1` [Compound 125, N-(2,2-difluoro-5H-[1,3]dioxolo[4′,5′:4,5]benzo[1,2-d]imidazol-6-yl)-2-(dimethylamino)isonicotinamide], the IC50 is < 200 nM in experiment [1] and 1000 to 15000 nM in experiment [3].

`Cc1cc(C)n(-c2cccc(C(=O)Nc3nc4cc5c(cc4[nH]3)OC(F)(F)O5)c2)n1` [Compound 130, N-(2,2-difluoro-5H-[1,3]dioxolo[4′,5′:4,5]benzo[1,2-d]imidazol-6-yl)-3-(3,5-dimethyl-1H-pyrazol-1-yl)benzamide]: the IC50 in experiment [1] is < 200 nM; in experiment [2] it was < 200 nM; in experiment [3], ≤ 500 nM.

As for `O=C(Nc1nc2cc3c(cc2[nH]1)OC(F)(F)O3)c1cc(-c2cccs2)on1` [Compound 138, N-(2,2-difluoro-5H-[1,3]dioxolo[4′,5′:4,5]benzo[1,2-d]imidazol-6-yl)-5-(thiophen-2-yl)isoxazole-3-carboxamide], the IC50 in experiment [1] was < 200 nM; in experiment [2], < 200 nM; in experiment [3], 500 to 1000 nM.

For `O=C(Nc1nc2cc3c(cc2[nH]1)OC(F)(F)O3)c1cccc(-c2noc(C3CC3)n2)c1` [Compound 147, 3-(5-cyclopropyl-1,2,4-oxadiazol-3-yl)-N-(2,2-difluoro-5H-[1,3]dioxolo[4′,5′:4,5]benzo[1,2-d]imidazol-6-yl)-benzamide], the results for the IC50 in experiment [1], in experiment [2] and in experiment [3] were < 200 nM, < 200 nM and 500 to 1000 nM, respectively.

The values above are taken from US20170240556A1, “BIFLUORODIOXALANE-AMINO-BENZIMIDAZOLE KINASE INHIBITORS FOR THE TREATMENT OF CANCER, AUTOIMMUNEINFLAMMATION AND CNS DISORDERS” (4SC DISCOVERY GMBH, priority 2012, published 2017).
